ChEMBL document CHEMBL5214927, “Recent advance on carbamate-based cholinesterase inhibitors as potential multifunctional agents against Alzheimer's disease” (Eur J Med Chem, 2022)
pIC50: −log10 of the molar value.

Tests used:
Acetylcholinesterase [1] = molecular target: Acetylcholinesterase (Homo sapiens, UniProt P22303); assay: Inhibition of recombinant human AChE using acetylthiocholine as substrate preincubated for 20 mins followed by substrate addition measured after 6 mins by Ellman's method
Sequence of Acetylcholinesterase (Homo sapiens, UniProt P22303) (P22303 whole entry): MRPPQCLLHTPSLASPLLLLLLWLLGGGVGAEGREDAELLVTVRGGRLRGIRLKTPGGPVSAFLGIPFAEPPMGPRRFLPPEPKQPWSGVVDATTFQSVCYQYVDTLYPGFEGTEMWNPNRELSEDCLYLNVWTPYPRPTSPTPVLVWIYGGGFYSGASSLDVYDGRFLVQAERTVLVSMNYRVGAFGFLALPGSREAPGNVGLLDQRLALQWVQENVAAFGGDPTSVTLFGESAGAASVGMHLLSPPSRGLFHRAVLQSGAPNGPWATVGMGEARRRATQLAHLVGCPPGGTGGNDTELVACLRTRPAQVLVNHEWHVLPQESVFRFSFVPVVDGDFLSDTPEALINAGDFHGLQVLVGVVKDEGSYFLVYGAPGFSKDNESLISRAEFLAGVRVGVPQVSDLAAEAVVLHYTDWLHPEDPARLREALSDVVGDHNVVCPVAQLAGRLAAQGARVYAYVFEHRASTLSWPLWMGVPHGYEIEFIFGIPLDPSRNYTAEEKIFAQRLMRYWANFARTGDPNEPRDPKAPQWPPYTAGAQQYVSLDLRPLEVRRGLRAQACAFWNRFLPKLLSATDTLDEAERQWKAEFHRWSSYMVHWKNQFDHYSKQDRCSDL

[2] = molecular target: Acetylcholinesterase and butyrylcholinesterase (AChE and BChE) (Rattus norvegicus) (UniProt P37136+Q9JKC1); assay: Selectivity index, ratio of IC50 for rat AChE to IC50 for rat BChE; type: protein assay
Sequence of Acetylcholinesterase and butyrylcholinesterase (AChE and BChE) (Rattus norvegicus) (Q9JKC1 1-597, one chain of several): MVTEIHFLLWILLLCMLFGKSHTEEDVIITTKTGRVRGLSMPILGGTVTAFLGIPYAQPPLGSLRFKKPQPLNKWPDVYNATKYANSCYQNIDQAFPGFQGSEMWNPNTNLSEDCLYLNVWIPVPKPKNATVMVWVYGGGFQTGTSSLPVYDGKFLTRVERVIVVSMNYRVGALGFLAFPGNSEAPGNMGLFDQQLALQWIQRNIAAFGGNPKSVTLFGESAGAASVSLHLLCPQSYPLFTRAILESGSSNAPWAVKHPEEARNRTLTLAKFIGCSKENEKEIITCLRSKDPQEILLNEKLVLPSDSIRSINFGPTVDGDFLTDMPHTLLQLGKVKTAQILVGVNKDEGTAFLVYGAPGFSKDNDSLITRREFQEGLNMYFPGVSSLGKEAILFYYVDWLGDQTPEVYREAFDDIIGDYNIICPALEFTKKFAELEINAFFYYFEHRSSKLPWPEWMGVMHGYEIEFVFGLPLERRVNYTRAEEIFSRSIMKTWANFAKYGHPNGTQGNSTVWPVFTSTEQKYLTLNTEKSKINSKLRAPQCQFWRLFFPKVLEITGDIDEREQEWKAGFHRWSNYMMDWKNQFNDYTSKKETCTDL

Acetylcholinesterase [3] = molecular target: T1, Acetylcholinesterase (Rattus norvegicus, UniProt P37136); assay: Inhibition of rat AChE
T1 sequence (P37136 whole entry): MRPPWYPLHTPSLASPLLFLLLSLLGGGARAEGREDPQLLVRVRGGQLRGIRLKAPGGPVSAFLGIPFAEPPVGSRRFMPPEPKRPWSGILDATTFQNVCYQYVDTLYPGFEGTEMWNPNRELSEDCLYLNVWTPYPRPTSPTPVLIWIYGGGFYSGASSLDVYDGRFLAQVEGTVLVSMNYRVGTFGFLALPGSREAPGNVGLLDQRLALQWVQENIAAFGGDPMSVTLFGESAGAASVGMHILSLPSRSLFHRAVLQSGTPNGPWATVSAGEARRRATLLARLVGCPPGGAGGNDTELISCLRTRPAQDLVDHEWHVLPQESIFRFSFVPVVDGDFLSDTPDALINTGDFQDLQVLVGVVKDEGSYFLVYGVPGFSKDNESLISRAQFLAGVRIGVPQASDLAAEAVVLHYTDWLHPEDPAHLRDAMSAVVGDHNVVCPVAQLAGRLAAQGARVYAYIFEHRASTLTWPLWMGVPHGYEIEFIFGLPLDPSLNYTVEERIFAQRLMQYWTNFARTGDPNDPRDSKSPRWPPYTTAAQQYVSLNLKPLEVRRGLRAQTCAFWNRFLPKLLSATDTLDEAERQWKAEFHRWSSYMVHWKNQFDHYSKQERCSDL

Butyrylcholinesterase [4] = molecular target: T2, Butyrylcholinesterase (Rattus norvegicus, UniProt Q9JKC1); assay: Inhibition of rat BChE
T2 sequence (Q9JKC1 whole entry): as the sequence (Q9JKC1 1-597, one chain of several) above

[5] = molecular target: T3, Amine oxidase [flavin-containing] A (Homo sapiens, UniProt P21397); assay: Displacement of 14C-5-hydroxytryptamine creatinine disulfate from MAO-A (unknown origin) preincubated for 60 mins followed by substrate addition measured after 30 mins in presence of selegiline by liquid scintillation counting method
T3 sequence (P21397 whole entry): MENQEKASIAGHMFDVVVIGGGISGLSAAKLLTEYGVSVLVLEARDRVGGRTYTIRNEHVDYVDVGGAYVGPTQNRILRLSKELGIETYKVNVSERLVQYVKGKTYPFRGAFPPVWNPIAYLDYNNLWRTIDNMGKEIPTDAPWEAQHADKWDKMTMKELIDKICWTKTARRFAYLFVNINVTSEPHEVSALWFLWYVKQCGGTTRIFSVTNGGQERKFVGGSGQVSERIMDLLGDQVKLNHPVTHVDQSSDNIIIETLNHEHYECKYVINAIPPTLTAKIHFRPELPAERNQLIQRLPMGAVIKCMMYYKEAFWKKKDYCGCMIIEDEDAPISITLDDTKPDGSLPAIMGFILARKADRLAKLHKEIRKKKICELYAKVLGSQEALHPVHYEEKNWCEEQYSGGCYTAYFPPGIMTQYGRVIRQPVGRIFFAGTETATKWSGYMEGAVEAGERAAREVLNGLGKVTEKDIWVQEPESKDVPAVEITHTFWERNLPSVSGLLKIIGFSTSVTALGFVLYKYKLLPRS

[6] = Selectivity index, ratio of IC50 for human red blood cell AChE to IC50 for equine serum BChE
[7] = molecular target: T4, Amine oxidase [flavin-containing] B (Homo sapiens, UniProt P27338); assay: Displacement of 14C-phenylethylamine from MAO-B (unknown origin) preincubated for 60 mins followed by substrate addition measured after 20 mins in presence of clorgyline by liquid scintillation counting method
T4 sequence (P27338 whole entry): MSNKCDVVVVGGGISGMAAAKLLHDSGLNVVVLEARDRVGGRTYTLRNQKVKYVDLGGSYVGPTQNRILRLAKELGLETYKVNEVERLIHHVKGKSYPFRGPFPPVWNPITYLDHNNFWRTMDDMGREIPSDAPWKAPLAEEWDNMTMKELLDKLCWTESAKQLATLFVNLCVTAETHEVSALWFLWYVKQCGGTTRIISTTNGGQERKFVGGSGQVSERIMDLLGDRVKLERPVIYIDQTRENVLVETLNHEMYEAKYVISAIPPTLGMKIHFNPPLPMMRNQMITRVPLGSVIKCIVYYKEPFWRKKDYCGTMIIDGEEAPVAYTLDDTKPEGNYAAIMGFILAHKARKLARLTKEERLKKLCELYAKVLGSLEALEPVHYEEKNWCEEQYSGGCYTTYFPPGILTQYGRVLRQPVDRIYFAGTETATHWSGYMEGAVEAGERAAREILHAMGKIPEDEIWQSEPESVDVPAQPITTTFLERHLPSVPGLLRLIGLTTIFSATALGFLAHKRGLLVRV

Cholinesterase [8] = molecular target: T5, Cholinesterase (Equus caballus, UniProt P81908); assay: Inhibition of equine serum BChE using butyrylthiocholine as substrate preincubated for 60 mins by Ellman's method
T5 sequence (P81908 whole entry): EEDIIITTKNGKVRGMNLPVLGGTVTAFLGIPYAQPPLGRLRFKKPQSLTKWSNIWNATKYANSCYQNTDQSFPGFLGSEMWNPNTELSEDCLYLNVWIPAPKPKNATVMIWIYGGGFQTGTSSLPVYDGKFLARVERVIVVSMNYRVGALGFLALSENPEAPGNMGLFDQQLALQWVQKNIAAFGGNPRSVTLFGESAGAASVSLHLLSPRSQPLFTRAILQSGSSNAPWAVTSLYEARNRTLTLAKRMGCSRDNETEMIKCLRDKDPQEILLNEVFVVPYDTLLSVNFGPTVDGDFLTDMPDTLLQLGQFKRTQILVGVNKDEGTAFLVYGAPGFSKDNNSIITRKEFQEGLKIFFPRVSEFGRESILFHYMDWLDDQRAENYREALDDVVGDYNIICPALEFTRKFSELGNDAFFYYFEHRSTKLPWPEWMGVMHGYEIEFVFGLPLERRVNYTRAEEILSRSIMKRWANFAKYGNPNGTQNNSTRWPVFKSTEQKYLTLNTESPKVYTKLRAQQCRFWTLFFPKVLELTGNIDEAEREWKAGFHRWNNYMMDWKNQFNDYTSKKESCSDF

Acetylcholinesterase [9] = molecular target: Acetylcholinesterase (Electrophorus electricus, UniProt O42275); assay: Inhibition of electric eel AChE using acetylthiocholine iodide as substrate preincubated for 5 mins followed by substrate addition measured after 2 mins by Ellman's method
Sequence of Acetylcholinesterase (Electrophorus electricus, UniProt O42275) (O42275 whole entry): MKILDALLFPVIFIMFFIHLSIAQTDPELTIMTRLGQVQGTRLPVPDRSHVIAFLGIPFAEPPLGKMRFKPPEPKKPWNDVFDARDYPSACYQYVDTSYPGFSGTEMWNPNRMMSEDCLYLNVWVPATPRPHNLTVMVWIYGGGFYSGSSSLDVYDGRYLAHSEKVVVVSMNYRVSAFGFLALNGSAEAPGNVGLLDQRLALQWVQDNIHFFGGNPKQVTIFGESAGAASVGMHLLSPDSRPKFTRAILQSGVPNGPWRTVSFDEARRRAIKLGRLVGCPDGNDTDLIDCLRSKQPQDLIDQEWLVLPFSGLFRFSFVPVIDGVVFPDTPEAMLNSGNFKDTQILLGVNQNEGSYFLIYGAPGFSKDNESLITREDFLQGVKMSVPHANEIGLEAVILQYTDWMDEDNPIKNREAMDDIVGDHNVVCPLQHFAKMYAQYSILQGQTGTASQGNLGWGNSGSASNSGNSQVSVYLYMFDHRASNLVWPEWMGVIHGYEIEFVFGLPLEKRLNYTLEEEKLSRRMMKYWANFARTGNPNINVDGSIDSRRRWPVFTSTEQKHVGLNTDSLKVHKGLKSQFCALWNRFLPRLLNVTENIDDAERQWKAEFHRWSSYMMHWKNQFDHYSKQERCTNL

Cholinesterase [10] = molecular target: T5, Cholinesterase; assay: Inhibition of horse BChE using butyrylthiocholine as substrate measured for 5 mins by Ellman's method
Acetylcholinesterase [11] = molecular target: T1, Acetylcholinesterase; assay: Inhibition of Sprague-Dawley rat cortex AChE using acetylthiocholine iodide as substrate incubated for 15 mins in presence of iso-OMPA inhibitor by Ellman's method
Butyrylcholinesterase [12] = molecular target: T2, Butyrylcholinesterase; assay: Inhibition of Sprague-Dawley rat serum BChE using butyrylthiocholine iodide as substrate incubated for 15 mins by Ellman's method

With `CC[C@@]1(c2cccc(OC(=O)Nc3ccccc3)c2)CCCCN(C)C1` as the molecule, how does the pIC50 (Acetylcholinesterase [1]) read?
Its pIC50 is 6.56.

Which results are given for `CN(C)C(=O)Oc1cc(OC(=O)N(C)C)cc(C(O)CNC(C)(C)C)c1` (configuration not stated) [BAMBUTEROL]?
Ratio IC50 [2]: 10000; pIC50 (Acetylcholinesterase [3]): 4.52; pIC50 (Butyrylcholinesterase [4]): 8.52

With `C#CCN(C)C(C)Cc1cccc(OC(=O)N(C)CC)c1` (configuration not stated) as the molecule, how does the pIC50 [5] read?
The pIC50 was 6.92.

And the Ratio IC50 [6]?
The Ratio IC50 was 153.

And the pIC50 [7]?
The pIC50 was 7.00.

And the pIC50 (Cholinesterase [8])?
Its pIC50 is 5.82.

With `CCOC(=O)Nc1ccc(N2CCN(c3ccccc3OC)CC2)cc1` as the molecule, how does the pIC50 (Acetylcholinesterase [9]) read?
The pIC50 was 7.03.

With `O=C(Nc1ccccc1)Oc1cccc(CN2CCN(c3ccccc3)CC2)c1` as the molecule, how does the pIC50 (Cholinesterase [10]) read?
Its pIC50 is 5.70.

What does the source list for `O=C(Oc1ccc(/C=C/c2cc(OC(=O)N3CCN(Cc4ccccc4)CC3)cc(OC(=O)N3CCN(Cc4ccccc4)CC3)c2)cc1)N1CCN(Cc2ccccc2)CC1`?
pIC50 (Acetylcholinesterase [11]): 5.39; pIC50 (Butyrylcholinesterase [12]): 5.95
